Assays:
[1] = tested on: Carmine spider mite (Tetranychus cinnabarinus); assay: Acaricidal activity, Airbrush spraying tower, mortality
Protocol: (§1) Technical samples were dissolved in acetone/methanol (1:1) and diluted to required concentration with water containing 0.1% of tween 80.
(§2) Armyworm (Leucania separata), diamondback moth (Plutella xylostella) culex mosquitoes (Culex pippens pallens), Myzus persicae (Myzus persicae and Carmine spider mite (Tetranychus cinnabarinus) were treated with Airbrush spraying tower, and culex mosquito was treated with dipping culture method. The pressure of Airbrush spraying tower was 10 psi (about 0.7 kg/cm2) and the amount of spraying was 0.5 ml. Mortality investigation of test insects was carried out 2 to 3 days after the treatment.

[2] = tested on: wheat powdery mildew (Blumeria graminis); assay: Fungicidal protective activity against wheat powdery mildew on potted plants; assay type: in vivo
[3] = tested on: wheat powdery mildew (Blumeria graminis); assay: Therapy activity against wheat powdery mildew on potted plants; assay type: in vivo
[4] = tested on: cucumber downy mildew (Pseudoperonospora cubenis); assay: Fungicidal protective activity against cucumber downy mildew on potted plants; assay type: in vivo; conditions: 400 mg/L
[5] = tested on: Myzus persicae; assay: Insecticidal activity, Airbrush spraying tower, mortality; conditions: 600 mg/L
Protocol: as §1, §2

[6] = 0.19 mg/L, wheat powdery mildew
[7] = 0.39 mg/L, wheat powdery mildew
[8] = 0.78 mg/L, wheat powdery mildew
[9] = 1.56 mg/L, wheat powdery mildew
[10] = 3.13 mg/L, wheat powdery mildew
[11] = 6.25 mg/L, wheat powdery mildew
[12] = 12.5 mg/L, wheat powdery mildew

Row | SMILES | Protective activity % one day [2, 6] | Protective activity % one day [2, 7] | Protective activity % one day [2, 8] | Protective activity % one day [2, 9] | Protective activity % one day [2, 10] | Protective activity % one day [2, 11] | control against wheat powdery mildew ([2]; 12.5 mg/L) | Protective activity % one day [2, 12] | Protective activity % one day ([2]; 25 mg/L, wheat powdery mildew) | control against wheat powdery mildew ([2]; 200 mg/L) | control against wheat powdery mildew ([2]; 400 mg/L) | control against cucumber downy mildew [4] | also measured
1 | CC(C)(C)c1ccc(CSc2cnn(C(C)(C)C)c(=O)c2Cl)cc1 [Pyridaben, reference compound] | – | – | – | – | – | – | – | – | – | – | – | – | control of Carmine spider mite ([1]; 10 mg/L): 95%
2 | COC=C(C(=O)OC)c1ccccc1COc1ccc(C(F)(F)F)cc1Cl [compound 1] | 30% | 55% | 90% | 100% | 100% | 100% | 100% | 100% | 100% | 100% | 100% | 100% | Therapy activity % 3 days ([3]; 1.56 mg/L): 50%; Therapy activity % 3 days ([3]; 3.125 mg/L): 80%; Therapy activity % 3 days ([3]; 6.25 mg/L): 100%; Therapy activity % 3 days ([3]; 12.5 mg/L): 100%; control of Carmine spider mite ([1]; 10 mg/L): 95%; control of Carmine spider mite ([1]; 50 mg/L): 100%; control of Carmine spider mite ([1]; 150 mg/L): 100%; control of Carmine spider mite ([1]; 600 mg/L): 100%; control of Myzus persicae [5]: 100%
3 | CON=C(C(=O)OC)c1ccccc1COc1ccc(C(F)(F)F)cc1Cl [compound 4] | 70% | 90% | 98% | 100% | 100% | 100% | 100% | 100% | 100% | 100% | 100% | 100% | control of Carmine spider mite ([1]; 600 mg/L): 100%
4 | CNC(=O)C(=NOC)c1ccccc1COc1ccc(C(F)(F)F)cc1Cl [compound 7] | 50% | 85% | 90% | 100% | 100% | 100% | 100% | 100% | 100% | 100% | 100% | 100% | –
5 | COC(=O)N(OC)c1ccccc1COc1ccc(C(F)(F)F)cc1Cl [compound 10] | – | – | – | – | – | – | – | – | – | more than 95% | 100% | – | –
6 | COC=C(C(=O)OC)c1ccccc1Oc1cc(Oc2ccc(C(F)(F)F)cc2Cl)ncn1 [compound 16] | – | – | – | – | – | – | – | – | – | – | 100% | – | –
7 | CO/N=C(/C(=O)OC)c1ccccc1COc1ccccc1C [kresoxin-methyl, reference compound] | – | – | – | – | – | – | – | – | – | – | – | – | inhibition at 0.19 µg/mL ([2]; Blumeria graminis, 24 h, 0.19 mg/L, wheat powdery mildew, read-out: Protective activity % one day): 0%; inhibition at 0.39 µg/mL ([2]; Blumeria graminis, 24 h, 0.39 mg/L, wheat powdery mildew, read-out: Protective activity % one day): 0%; inhibition at 0.78 µg/mL ([2]; Blumeria graminis, 24 h, 0.78 mg/L, wheat powdery mildew, read-out: Protective activity % one day): 15%; inhibition at 1.56 µg/mL ([2]; Blumeria graminis, 24 h, 1.56 mg/L, wheat powdery mildew, read-out: Protective activity % one day): 40%; inhibition at 3.13 µg/mL ([2]; Blumeria graminis, 24 h, 3.13 mg/L, wheat powdery mildew, read-out: Protective activity % one day): 70%; inhibition at 6.25 µg/mL ([2]; Blumeria graminis, 24 h, 6.25 mg/L, wheat powdery mildew, read-out: Protective activity % one day): 98%; inhibition at 12.5 µg/mL ([2]; Blumeria graminis, 24 h, 12.5 mg/L, wheat powdery mildew, read-out: Protective activity % one day): 100%; inhibition at 25 µg/mL ([2]; Blumeria graminis, 24 h, 25 mg/L, wheat powdery mildew, read-out: Protective activity % one day): 100%; inhibition at 1.56 µg/mL ([3]; Blumeria graminis, 72 h, 1.56 mg/L, read-out: Therapy activity % 3 days): 10%; inhibition at 3.125 µg/mL ([3]; Blumeria graminis, 72 h, 3.125 mg/L, read-out: Therapy activity % 3 days): 15%; inhibition at 6.25 µg/mL ([3]; Blumeria graminis, 72 h, 6.25 mg/L, read-out: Therapy activity % 3 days): 20%; inhibition at 12.5 µg/mL ([3]; Blumeria graminis, 72 h, 12.5 mg/L, read-out: Therapy activity % 3 days): 100%

From patent publication US7947734B2, “Substituted para-trifluoromethyl phenylate compounds and its preparation and use thereof” (Sinochem Corporation, priority 2005, dated 2011)
